This is an account of results in US4253997A, “Anti-ovulatory decapeptides” (American Home Products Corporation, priority 1979, dated 1981).

The subject of experiment [1] is ovulation. The experiment can be described thus: Anti-ovulatory activity in proestrus rats (oviducts inspected for ova). The experiment is classed as in vivo, Sprague-Dawley CD rats. The following applies: single administration at 1200 hours of proestrus. As to the method:
The product of Example 2 was injected subcutaneously, in corn oil, as a single administration at 1200 hours on the day of proestrus (at least 2.5 hours prior to the commencement of the ovulatory LH surge). The rats were sacrificed on the morning of estrus (the day following proestrus) and the oviducts were inspected for the presence of ova under a dissecting microscope. The number of animals ovulating and the percent inhibition were as follows: […]

Experiment [2] deals with leuteinizing hormone (LH) release. The following applies: LH-RH = 100 percent; cited from earlier work.
For experiment [3], the system named is ovulation. The following applies: administered at noon of proestrus; cited from earlier work.
Another experiment deals with LH-RH. To be noted: in vitro; cited from earlier work.

Consider “D-(5-Oxoprolyl)-D-phenylalanyl-D-3-(1-naphthyl)-alanyl-L-seryl-L-tyrosyl-D- 3-(1-naphthyl)-alanyl-L-leucyl-L-arginyl-L-prolyl-glycine acetate salt [Example 2]”, for which the “number of animals ovulating” value in the experiment with ovulation [1] (375 μg s.c. in corn oil) was 5/6; in the experiment on ovulation [1] (500 μg s.c. in corn oil), 6/20; with ovulation [1] (1000 μg s.c. in corn oil) it was 1/14. Also, the “percent inhibition of ovulation” value in the experiment on ovulation [1] (375 μg s.c. in corn oil) is on record as 17%; in the experiment on ovulation [1] (500 μg s.c. in corn oil), 70%; in the experiment with ovulation [1] (1000 μg s.c. in corn oil), 93%.
Turning to Nal(1)^3 -LH-RH, the “potency as LH releasing agent relative to LH-RH” value in experiment [2] is reported as 187.1%.
As to [D-pGlu^1, D-Phe^2, D-Trp^3,6 ]-LH-RH, in the experiment with ovulation [3], the “effective dose for in vivo inhibition of ovulation” value was 20 to 25 mg. Moreover, the “IDR50 (inhibitory molar dose ratio antagonist/LH-RH)” value in the experiment on LH-RH is on record as 3/1.
